Experimental data taken from patent US20110009420A1, “Histamine H3 Receptor Ligands” (HIGH POINT PHARMACEUTICALS, LLC, priority 2008, published 2011).
Counter-ions that a name gives are not always drawn. Like-named read-outs stand apart in the source and are kept apart here.

Legend:
[1] = target: T1, human histamine H3 receptor (Homo sapiens, UniProt Q9Y5N1); assay: functional [35S]GTPγS binding assay (antagonist potency, inhibition of RAMHA-stimulated binding); type: biochemical; conditions: for [35S]GTPγS binding Ki(nM): functional Ki from full dose-response IC50 by Cheng-Prusoff, 10 nM RAMHA, re-synthesized compounds
T1 construct: expressed in transfected cells
T1 sequence (Q9Y5N1 whole entry): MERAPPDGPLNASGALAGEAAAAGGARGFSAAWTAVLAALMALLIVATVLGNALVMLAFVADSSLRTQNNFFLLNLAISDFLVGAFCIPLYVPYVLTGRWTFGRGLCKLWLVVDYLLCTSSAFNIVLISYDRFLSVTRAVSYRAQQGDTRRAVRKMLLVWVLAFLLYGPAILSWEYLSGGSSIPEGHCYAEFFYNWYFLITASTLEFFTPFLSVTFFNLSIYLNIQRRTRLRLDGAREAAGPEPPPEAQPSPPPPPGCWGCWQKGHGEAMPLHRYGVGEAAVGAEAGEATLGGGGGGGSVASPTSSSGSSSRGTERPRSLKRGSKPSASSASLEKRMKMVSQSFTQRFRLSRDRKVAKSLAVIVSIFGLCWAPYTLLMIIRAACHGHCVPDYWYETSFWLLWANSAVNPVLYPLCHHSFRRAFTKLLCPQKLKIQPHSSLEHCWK
Method: CHO-cells, stably expressing the human histamine H3 receptor, were harvested and membranes were prepared by threefold homogenization in a HEPES buffer (20 mM HEPES, 0.1-10 mM EDTA; pH 7.4). […] The hits were subsequently tested in full dose-response curves for functional IC50 determinations. After 2 h incubation at RT with gentle shaking of the plate, the plate was centrifuged at 370 RCF for 10 min and subsequently the radioactivity was counted in a Packard TopCount-NXT.
The IC50 values were calculated by non-linear regression analysis using GraphPad Prism.

[2] = read-out: [35S]GTPγS binding Ki

SMILES	melting point [°C]	inhibition at 3.5 µM [1] [%]	Ki [1, 2] [nM]	other results
COc1ccc2oc(C(=O)N3CCN(CCCN4CCCCC4)CC3)cc2c1 (as salt: hydrochloride) (hydrate or solvate) [Compound A13B12]	255 to 257	–	–	–
O=C(CC1c2ccccc2-c2ccccc21)N1CCN(CCCN2CCCCC2)CC1 [Compound A18B12, 2-(9H-Fluoren-9-yl)-1-(4-(3-(piperidin-1-yl)propyl)piperazin-1-yl)ethanone, dihydrochloride]	–	74	7.4	[35S]GTPγS binding Ki(nM) [1]: low nanomolar range
O=C(Cc1c[nH]c2ccccc12)N1CCN(CCCN2CCCCC2)CC1 (as salt: hydrochloride) [Compound A14B12]	256 to 258	–	–	–
O=C(c1cc2ccccc2o1)N1CCN(CCCN2CCCCC2)CC1 (as salt: hydrochloride) (hydrate or solvate) [Compound A12B12, Benzofuran-2-yl-(4-(3-(piperidin-1-yl)propyl)piperazin-1-yl)methanone, dihydrochloride]	253 to 255	–	–	–
COc1ccc2oc(C(=O)N3CCN(CCCN4CCCCC4)CC3)cc2c1 [Compound A13B12]	–	60	16	–
O=C(c1cc2ccccc2s1)N1CCN(CCCN2CCCCC2)CC1 [Compound A11B12]	–	57	35	–
O=C(c1cc2ccccc2s1)N1CCN(CCCN2CCCCC2)CC1 (as salt: hydrochloride) (hydrate or solvate) [Compound A11B12]	265 to 267	–	–	–
O=C(CC1c2ccccc2-c2ccccc21)N1CCN(CCCN2CCCCC2)CC1 (as salt: hydrochloride) (hydrate or solvate) [Compound A18B12, 2-(9H-Fluoren-9-yl)-1-(4-(3-(piperidin-1-yl)propyl)piperazin-1-yl)ethanone, dihydrochloride]	263 to 265	–	–	–
O=C(c1cc2ccccc2o1)N1CCN(CCCN2CCCCC2)CC1 [Compound A12B12, Benzofuran-2-yl-(4-(3-(piperidin-1-yl)propyl)piperazin-1-yl)methanone, dihydrochloride]	–	70	19	–
O=C(c1cccc(Oc2ccccc2)c1)N1CCN(CCCN2CCCCC2)CC1 [Compound A21B12]	–	62	23	–
O=C(c1cccc(Oc2ccccc2)c1)N1CCN(CCCN2CCCCC2)CC1 (as salt: hydrochloride) [Compound A21B12]	274 to 276	–	–	–
O=C(Cc1c[nH]c2ccccc12)N1CCN(CCCN2CCCCC2)CC1 [Compound A14B12]	–	73	–	Ki [1]: 10 nM; [35S]GTPγS binding Ki(nM) [1]: low nanomolar range
O=C(Cc1ccc(-c2ccccc2)cc1)N1CCN(CCCN2CCCCC2)CC1 [Compound A15B12]	–	56	–	Ki [1]: 51 nM
O=C(Cc1ccc(-c2ccccc2)cc1)N1CCN(CCCN2CCCCC2)CC1 (as salt: hydrochloride) (hydrate or solvate) [Compound A15B12]	274 to 276	–	–	–
